Measured values reported in patent publication US9546129B2, “DTPA prodrugs, compositions thereof, and methods of using the same” (priority 2012, dated 2017).
“And” between values parts separate entries of the source, which are not always exact repeats. Equal entries are not always repeated. Where two headings read alike, the source gives them in different places.

Legend:
[1] = 10-day repeat-dose toxicity and toxicokinetics study in dogs; type: in vivo, Beagle dog; conditions: for AUC(0-t) / Cmax: plasma, po, 200 mg/kg/day, after 10 days of dosing; for AUC(0-t): read-out: C2E2 AUC0-24; for Cmax: read-out: Mean C2E2 Cmax
Description: An exploratory study was conducted to evaluate the toxicity and to determine the toxicokinetics of the test article, C2E2, when administered to dogs via 10 daily oral gavage doses. Groups of 2 Beagle dogs/sex were administered C2E2 via oral gavage at dose levels of 0, 60, 200, 400, or 600 mg/kg. The vehicle was reverse osmosis water and the dose volume was 8 mL/kg. Assessment of toxicity was based on mortality, clinical observations, body weight, food consumption, clinical pathology, gross pathology, organ weights, histopathology of selected tissues, and plasma essential trace elements analysis. Blood samples were collected on Days 1 and 10 for toxicokinetic evaluations of C2E2, C2E1, DTPA and C2E3. C2E3 is believed to be an impurity in the C2E2 lot used.

[2] = Single dose toxicology study in rats (UNC-11.240-RMTD); type: in vivo; conditions: rat
[3] = Stability of C2E2 in plasma (Beagle); type: in vitro ADME, dog; conditions: 37° C., up to two hours
Description: Prior to the study, 975 μL of plasma (Rat, Beagle and Human) was preheated to 37° C. in Eppendorff tubes and the test compound (C2E2) was prepared in DI water (10 mg/mL). The C2E2 was from Lot 050 obtained using Method 2. To initiate the study, 25 μL of the C2E2 solution was added to the pre-heated plasma and briefly vortexed, to mix. At 0, 15, 30, 60 and 120 minutes a 100 μL sample of plasma was taken, an equal volume of cold acetonitrile was added and mixed to precipitate plasma proteins. Samples were centrifuged at 4° C. and 14,000×g for 10 minutes to remove precipitated proteins, the supernatant was collected and the C2E2 concentration determined by HPLC-CAD. All conditions were repeated in triplicate.
HPLC Detection Methods: C2E2 analysis was performed on a prominence HPLC (Shimadzu Corporation, Kyoto, Japan) equipped with a Corona Ultra charged […] detector (CAD) (Thermo scientific, Sunnyvale, Calif.). […]
The gradient is 0.01-34.99 min: 22% B; 35.00-44.99 min: 33% B; 45.00-60.00 min: 38% B. The flow rate is 1.0 mL/min, a Thermo Hypersil ODS column (150 mm 4.6 mm i.d. with 5.0 μm particles) will be used, injection volume will be 10 μL and column oven temperature maintained at 25° C. […] The limit of quantification is 0.35 μg/mL. […]

[4] = tested on: Salmonella typhimurium tester strains TA98, TA100, TA1535, and TA1537; experiment: Bacterial Reverse Mutation Assay (Salmonella); type: cell-based
Description: The objective of this study was to evaluate C2E2 for its ability to induce reverse mutations at the histidine locus in Salmonella typhimurium tester strains TA98, TA100, TA1535, and TA1537, and at the tryptophan locus of Escherichia coli (E. coli) strain WP2uvrA in the presence or absence of an exogenous mammalian metabolic activation system (S9).
C2E2 was evaluated in an initial mutagenicity assay in all five tester strains at dose levels of 5.00, 16.0, 50.0, 160, 500, 1600, and 5000 μg/plate with and without S9. C2E2 was from Lot 050 obtained using Method 2. C2E2 was prepared in Cell Culture Grade Water vehicle and formed a transparent colorless solution. […] The reductions in the numbers of revertant colonies and the enhanced background lawn growth are indicative of C2E2 treatment-related toxicity. With exception to the enhanced background lawn in TA1537 without S9, all other background lawns in all strains, with and without S9, were normal indicating there was appropriate bacterial growth during treatment to express a mutagenic event. There were no relevant increases in the numbers of revertant colonies observed at any dose level with any strain in the absence or presence of S9 metabolic activation.

[5] = tested on: ^241Am contaminated dogs (nose-only inhalation); experiment: Efficacy study in dogs, preliminary ^241Am recovery in urine and liver; type: in vivo, dog; conditions: for Total Recovered Activity, Liver, Treatment Mean / Total Recovered Activity, Urine, Treatment Mean: dogs; for Total Recovered Activity, Liver / Total Recovered Activity, Urine: individual animals
Description: Dogs were administered ^241Am (target of 3 μCi/animal) by nose-only inhalation on Day 0. […] Group 1 was a control and was used for determining the unperturbed biokinetics. Fourteen (14) days post C2E2 administration, the animals were sedated and euthanized. Preliminary urinary excretion and liver retention data were obtained (Table 8).

[6] = C2E2 100 mg/kg oral, female dogs
[7] = C2E2 100 mg/kg oral, female dogs, 100 mg/kg
[8] = C2E2 100 mg/kg oral, male dogs, 100 mg/kg
[9] = C2E2 300 mg/kg oral, female dogs
[10] = C2E2 300 mg/kg oral, female dogs, 300 mg/kg
[11] = C2E2 300 mg/kg oral, male dogs, 300 mg/kg
[12] = C2E2 500 mg/kg oral, female dogs
[13] = C2E2 500 mg/kg oral, female dogs, 500 mg/kg
[14] = C2E2 500 mg/kg oral, male dogs, 500 mg/kg

CCOC(=O)CN(CCN(CCN(CC(=O)O)CC(=O)OCC)CC(=O)O)CC(=O)O [C2E2, 6,9-bis(carboxymethyl)-3-(2-ethoxy-2-oxoethyl)-11-oxo-12-oxa-3,6,9-triazatetradecan-1-oic acid]
Dose proportionality of mean Cmax and AUC0-24 ([1]; 60 to 600 mg/kg/day): not consistently dose proportional | Maximum-tolerated dose (statement) ([1]; 400 and 600 mg/kg/day, early sacrifices): exceeded the maximum-tolerated dose | NOAEL at 10 days ([1]; both sexes, Beagle, dog, in vivo, dogs, oral gavage, 10 days, read-out: No observed adverse effect level (NOAEL)): 200 mg/kg/day | Accumulation after multiple dosing ([1]; dogs, 10 daily doses): No accumulation | Sex differences in C2E2 mean Cmax and AUC0-24 ([1]; dogs, 60-600 mg/kg/day): less than 2 fold | Dose at which liver and kidney were target organs of toxicity ([1]; dogs, 10 days): ≥ 400 mg/kg/day | Dose with clinical chemistry changes consistent with hepatotoxicity ([1]; dogs, 10 days): ≥ 400 mg/kg/day | Dose with test article related clinical observations (vomitus/emesis, fecal abnormalities) ([1]; dogs, 10 days): ≥ 200 mg/kg/day | AUC(0-t) ([1]; female, Beagle, dog, females): 184 µg·h/mL | Cmax ([1]; female, Beagle, dog, females): 72 µg/mL | Dose with dose-dependent body weight loss ([1]; females): ≥ 400 mg/kg/day | AUC(0-t) ([1]; male, Beagle, dog, males): 151 µg·h/mL | Cmax ([1]; male, Beagle, dog, males): 59.5 µg/mL | Dose with dose-dependent body weight loss ([1]; males): ≥ 200 mg/kg/day | Dose with hepatocyte degeneration/necrosis and mixed cell inflammation ([1]; males, terminal sacrifice): ≥ 200 mg/kg/day | Mortality / early sacrifice ([1]; one male 600 mg/kg/day, one male 400 mg/kg/day): Two animals were sacrificed early due to moribund condition | Essential trace elements in plasma (Cr, Co, Cu, Fe, Mg, Mn, Mo, Se, Zn) ([1]; repeated doses up to 600 mg/kg/day for 10 days): No test article-related depletion of essential trace elements in plasma | Maximum tolerated single dose [2]: 2000 mg/kg | Metabolism in plasma (observation) [3]: minimal or not detected | Dose level with reductions in mean numbers of revertant colonies (toxicity) ([4]; TA100, TA1535, TA1537, without S9): 5000 μg/plate | Dose level with reductions in mean numbers of revertant colonies (toxicity) ([4]; TA1535, TA1537, with S9): ≥ 500 μg/plate | Mutagenicity (reverse mutations at the histidine locus) ([4]; up to 5000 μg/plate, with and without S9): negative | Total Recovered Activity, Liver, Treatment Mean ([5]; C2E2 100 mg/kg oral): 168.91 nCi | Total Recovered Activity, Urine, Treatment Mean ([5]; C2E2 100 mg/kg oral): 168.70 nCi | Total Recovered Activity, Liver, Gender Mean [5, 6]: 157.92 nCi | Total Recovered Activity, Urine, Gender Mean [5, 6]: 168.30 nCi | Total Recovered Activity, Liver [5, 7]: 186.4 nCi and 129.4 nCi | Total Recovered Activity, Urine [5, 7]: 193.85 nCi and 142.75 nCi | Total Recovered Activity, Liver, Gender Mean ([5]; C2E2 100 mg/kg oral, male dogs): 179.89 nCi | Total Recovered Activity, Urine, Gender Mean ([5]; C2E2 100 mg/kg oral, male dogs): 169.10 nCi | Total Recovered Activity, Liver [5, 8]: 213.3 nCi and 146.5 nCi | Total Recovered Activity, Urine [5, 8]: 187.57 nCi and 150.63 nCi | Total Recovered Activity, Liver, Treatment Mean ([5]; C2E2 300 mg/kg oral): 132.28 nCi | Total Recovered Activity, Urine, Treatment Mean ([5]; C2E2 300 mg/kg oral): 169.50 nCi | Total Recovered Activity, Liver, Gender Mean [5, 9]: 144.49 nCi | Total Recovered Activity, Urine, Gender Mean [5, 9]: 181.71 nCi | Total Recovered Activity, Liver [5, 10]: 87.6 nCi and 201.4 nCi | Total Recovered Activity, Urine [5, 10]: 121.32 nCi and 242.10 nCi | Total Recovered Activity, Liver, Gender Mean ([5]; C2E2 300 mg/kg oral, male dogs): 120.06 nCi | Total Recovered Activity, Urine, Gender Mean ([5]; C2E2 300 mg/kg oral, male dogs): 157.29 nCi | Total Recovered Activity, Liver [5, 11]: 109.2 nCi and 130.9 nCi | Total Recovered Activity, Urine [5, 11]: 97.24 nCi and 217.34 nCi | Total Recovered Activity, Liver, Treatment Mean ([5]; C2E2 500 mg/kg oral): 45.01 nCi | Total Recovered Activity, Urine, Treatment Mean ([5]; C2E2 500 mg/kg oral): 188.82 nCi | Total Recovered Activity, Liver, Gender Mean [5, 12]: 40.30 nCi | Total Recovered Activity, Urine, Gender Mean [5, 12]: 103.00 nCi | Total Recovered Activity, Liver [5, 13]: 34.3 nCi and 46.3 nCi | Total Recovered Activity, Urine [5, 13]: 65.39 nCi and 140.61 nCi | Total Recovered Activity, Liver, Gender Mean ([5]; C2E2 500 mg/kg oral, male dogs): 49.73 nCi | Total Recovered Activity, Urine, Gender Mean ([5]; C2E2 500 mg/kg oral, male dogs): 274.65 nCi | Total Recovered Activity, Liver [5, 14]: 49.4 nCi and 50.1 nCi | Total Recovered Activity, Urine [5, 14]: 288.78 nCi and 260.53 nCi
